We go through 39 molecules from US20250221966A1, “RXFP1 AGONISTS” (BRISTOL-MYERS SQUIBB COMPANY, priority 2021, published 2025).

The assay concerns the target T1, human RXFP1 (Homo sapiens, UniProt Q9HBX9).
T1 construct: expressed in transfected cells
T1 sequence (Q9HBX9 1-757): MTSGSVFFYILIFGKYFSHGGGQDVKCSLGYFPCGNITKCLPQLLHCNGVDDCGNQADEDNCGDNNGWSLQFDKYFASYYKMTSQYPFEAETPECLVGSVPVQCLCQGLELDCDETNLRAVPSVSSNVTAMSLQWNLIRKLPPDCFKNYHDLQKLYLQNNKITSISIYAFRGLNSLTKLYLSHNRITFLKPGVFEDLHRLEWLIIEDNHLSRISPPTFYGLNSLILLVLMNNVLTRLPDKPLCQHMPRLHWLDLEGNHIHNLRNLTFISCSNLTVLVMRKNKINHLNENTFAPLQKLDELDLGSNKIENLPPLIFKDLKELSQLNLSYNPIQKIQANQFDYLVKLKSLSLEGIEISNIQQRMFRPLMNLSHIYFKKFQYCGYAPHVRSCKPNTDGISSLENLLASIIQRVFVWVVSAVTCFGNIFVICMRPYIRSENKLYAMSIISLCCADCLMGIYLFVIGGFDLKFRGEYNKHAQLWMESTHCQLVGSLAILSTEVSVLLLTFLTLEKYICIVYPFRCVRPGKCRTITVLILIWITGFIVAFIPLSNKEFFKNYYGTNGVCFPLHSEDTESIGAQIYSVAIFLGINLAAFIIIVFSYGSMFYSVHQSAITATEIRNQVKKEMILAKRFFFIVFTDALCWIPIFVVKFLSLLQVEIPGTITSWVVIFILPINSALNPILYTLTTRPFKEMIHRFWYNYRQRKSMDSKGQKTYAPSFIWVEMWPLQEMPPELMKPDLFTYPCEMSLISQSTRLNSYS
As to the kind of experiment: RXFP1 cAMP assay (hRXFP1 HEK293 cAMP assay, HTRF). The format is cell-based. In a few lines:
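hRXFP1-HEK293 stable line; HBSS + Ca/Mg, 20 mM HEPES, 0.05% BSA, 0.5 mM IBMX; cpd 0.010 nM–50 μM, 2% DMSO; 30 min RT; lysis, HTRF cAMP detection; 4-PL fit.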

Where [1] appears, read: HEK293 cells stably expressing human RXFP1, 30 min at room temperature, read-out: cAMP hRXFP1 HEK293 Assay EC50.

In general, EC50 refers to the concentration needed to bring the measured effect to its halfway point.

Like-named read-outs stand apart in the source and are kept apart here.

Take `CNC(=O)OC(C(=O)NOC)c1ccc(F)c(-c2ccc(OC)c(C(=O)N[C@@H]3C4CCC(/C4=C/C4CC4)[C@@H]3C(=O)Nc3ccc(F)c(C(F)(F)F)c3)c2)c1` (stereo partly drawn) [compound 234]: the EC50 under setting [1] stood at 1 nM.

As for `COc1ccc([C@@H]2CO[C@H]3[C@@H]2OC[C@@H]3O)cc1C(=O)N[C@H]1[C@@H](C(=O)Nc2ccc(F)c(C(F)(F)F)c2)[C@H]2CC[C@@H]1/C2=C\C1CC1` [Example 536, (1R,2S,3R,4R,Z)-7-(cyclopropylmethylene)-N-(4-fluoro-3-(trifluoromethyl)phenyl)-3-(5-((3R,3aR,6S,6aR)-6-hydroxyhexahydrofuro[3,2-b]furan-3-yl)-2-methoxybenzamido)bicyclo[2.2.1]heptane-2-carboxamide], under setting [1], the EC50 is 24.7 nM. Consider `COc1c(F)cc(C2=NOC3CC(O)CC23)cc1C(=O)N[C@H]1[C@@H](C(=O)Nc2ccc(F)c(C(F)(F)F)c2)[C@H]2CC[C@@H]1/C2=C\C1CCCC1` (stereo partly drawn) [compound 868], for which the EC50 under setting [1] came to 3.8 nM. `COc1c(F)cc(C2=NOC3CC(O)(C(F)(F)F)CC23)cc1C(=O)N[C@H]1[C@@H](C(=O)Nc2ccc(F)c(C(F)(F)F)c2)[C@H]2CC[C@@H]1/C2=C\C1CC(F)(F)C1` (stereo partly drawn) [compound 914]: the EC50 under setting [1] came to 7.8 nM. As for `COc1cc(C2CC2)c(C2=NOC3COCC23)cc1C(=O)N[C@H]1[C@@H](C(=O)Nc2ccc(F)c(C(F)(F)F)c2)[C@H]2CC[C@@H]1/C2=C\C1CC1` (single isomer, unassigned) [compound 695], the EC50 under setting [1] came to 836 nM. `COc1ccc(Cl)cc1C(=O)N[C@@H]1C2CCC(C2=C(C)C)[C@@H]1C(=O)Nc1ccc(F)c(C(F)(F)F)c1` (stereo partly drawn) [compound 109]: under setting [1], the EC50 is 390 nM. Same read-out and setting: as for `COc1ccc(C2=NOC3COCC23)cc1C(=O)N[C@H]1[C@@H](C(=O)N[C@H](C)C2(C)CC2(F)F)[C@H]2CC[C@@H]1/C2=C\C1CC1` (stereo partly drawn) [compound 770], the figure is 3.6 nM; as for `COc1ccc(C2CCCN2C(=O)C(C)(C)O)cc1C(=O)N[C@@H]1C2CCC(C2=CC2CC2)[C@@H]1C(=O)Nc1ccc(F)c(C(F)(F)F)c1` (stereo partly drawn) [compound 671], 451 nM. Take `CNC(=O)/C=C1\C2CCC1[C@H](C(=O)Nc1ccc(F)c(C(F)(F)F)c1)[C@@H]2NC(=O)c1cc(F)c(F)cc1OC` (stereo partly drawn) [compound 73]: the EC50 under setting [1] is 2400 nM.

Take `COc1c(F)cc(C2=NOC3CC(CO)CC23)cc1C(=O)N[C@H]1[C@@H](C(=O)N[C@H](C)C2(C)CC2)[C@H]2CC[C@@H]1/C2=C\CC(O)C(F)(F)F` (stereo partly drawn) [compound 821]: the EC50 under setting [1] was 2.5 nM.

Consider `COc1ccc(C2=NOC3CC(C(C)(C)O)CC23)cc1C(=O)N[C@H]1[C@@H](C(=O)Nc2ccc(F)c(C(F)(F)F)c2)[C@H]2CC[C@@H]1/C2=C\C1CC1` (single isomer, unassigned) [compound 599], for which the EC50 under setting [1] came out at 104 nM. As for `COc1ccc(C2=NOC3CC(CO)CC23)cc1C(=O)N[C@H]1[C@@H](C(=O)Nc2ccc(F)c(C(F)(F)F)c2)[C@H]2CC[C@@H]1/C2=C\c1csc(C)n1` (stereo partly drawn) [compound 805], under setting [1], the half-maximal effective concentration (EC50) worked out at 4.1 nM. As to `COc1ccc(-c2cc(C(COC(=O)Nc3ccccc3)C(F)(F)F)ccc2F)cc1C(=O)N[C@H]1[C@@H](C(=O)Nc2ccc(F)c(C(F)(F)F)c2)[C@H]2CC[C@@H]1/C2=C\C1CC1` (stereo partly drawn) [compound 876], the EC50 under setting [1] was 0.9 nM. As for `COc1cc(F)c(F)cc1C(=O)N[C@@H]1C2CCC(/C2=C/Cc2ccccc2)[C@@H]1C(=O)Nc1ccc(F)c(C(F)(F)F)c1` (stereo partly drawn) [compound 57], the EC50 under setting [1] was 550 nM. `COc1ccc(C2=NOC3CC(C(N)=O)CC23)cc1C(=O)N[C@H]1[C@@H](C(=O)Nc2ccc(F)c(C(F)(F)F)c2)[C@H]2CC[C@@H]1/C2=C\C1CC1` (single isomer, unassigned) [compound 587]: under setting [1], the EC50 stood at 80.8 nM. As for `COc1ccc(C2=NOC3COCC23)cc1C(=O)N[C@H]1[C@@H](C(=O)NCC2C(C)(C)C2(C)C)[C@H]2CC[C@@H]1/C2=C\C1CC1` (stereo partly drawn) [compound 586], under setting [1], the EC50 worked out at 79.1 nM. As for `COc1ccc(C2=NOC3CC(O)CC23)cc1C(=O)N[C@H]1[C@@H](C(=O)Nc2ccc(F)c(C(F)(F)F)c2)[C@H]2CC[C@@H]1/C2=C\C(F)(F)F` (stereo partly drawn) [compound 543], the EC50 under setting [1] turned out to be 30.5 nM. The same measure, in the same setting: the same measure for `O=C(N[C@H]1[C@@H](C(=O)Nc2ccc(F)c(C(F)(F)F)c2)[C@H]2CC[C@@H]1/C2=C\C1CC1)c1ccc(F)c(C2=NOC3COCC23)c1` (stereo partly drawn) [compound 714]: 1750 nM; for `COc1c(F)cc(C2=NOC3CC(CO)CC23)cc1C(=O)N[C@H]1[C@@H](C(=O)N[C@H](C)C2(C)CC(F)(F)C2)[C@H]2CC[C@@H]1/C2=C\C1CC1` (stereo partly drawn) [compound 870]: 2.2 nM; for `COc1cc(F)c(F)cc1C(=O)N[C@@H]1C2CCC(/C2=C/c2cnn(Cc3ccccc3)c2)[C@@H]1C(=O)Nc1ccc(F)c(C(F)(F)F)c1` (stereo partly drawn) [compound 61]: 570 nM. Still for that read-out and setting: the same measure for `COc1ccc(-c2cc(C3=NOC(CO)C3)ccc2F)cc1C(=O)N[C@H]1[C@@H](C(=O)Nc2ccc(F)c(C(F)(F)F)c2)[C@H]2CC[C@@H]1/C2=C\C1CC1` (stereo partly drawn) [compound 905]: 7 nM; for `COc1ccc(N2CC(CO)CC2=O)cc1C(=O)N[C@H]1[C@@H](C(=O)Nc2ccc(F)c(C(F)(F)F)c2)[C@H]2CC[C@@H]1/C2=C\C1CC1` (stereo partly drawn) [compound 526]: 22.4 nM. On to `COc1ccc(C2=NOC3(C2)CC(CO)C3)cc1C(=O)N[C@H]1[C@@H](C(=O)Nc2ccc(F)c(C(F)(F)F)c2)[C@H]2CC[C@@H]1/C2=C\C1CC1` (single isomer, unassigned) [compound 711], for which the EC50 under setting [1] was 1560 nM.

Regarding `COc1cc(F)c(F)cc1C(=O)N[C@@H]1C2CCC(C2Cc2ccccc2)[C@@H]1C(=O)Nc1ccc(F)c(C(F)(F)F)c1` (stereo partly drawn) [compound 976], the EC50 under setting [1] amounted to 710 nM. Still for that read-out and setting: the same measure for `COc1cc(F)c(F)cc1C(=O)N[C@@H]1C2CCC(/C2=C/C2=CCCCC2)[C@@H]1C(=O)Nc1ccc(F)c(C(F)(F)F)c1` (stereo partly drawn) [compound 35]: 30 nM; for `COc1ccc(C2=NOC3COCC23)cc1C(=O)N[C@H]1[C@@H](C(=O)NCc2ccnn2C)[C@H]2CC[C@@H]1/C2=C\C1CC1` (stereo partly drawn) [compound 707]: 1330 nM; for `COc1ccc(C2=NOC(CC(=O)O)C2)cc1C(=O)N[C@@H]1C2CCC(/C2=C/C2CCC2)[C@@H]1C(=O)Nc1ccc(F)c(C(F)(F)F)c1` (stereo partly drawn) [compound 393]: 73 nM. Regarding `COc1ccc(C2=NOC3COCC23)cc1C(=O)N[C@H]1[C@@H](C(=O)NC(C)(C)c2ccccc2Cl)[C@H]2CC[C@@H]1/C2=C\C1CC1` (stereo partly drawn) [compound 669], the EC50 under setting [1] worked out at 416 nM. For `COc1ccc(C2=NOC3CS(=O)(=O)CC23)cc1C(=O)N[C@@H]1C2CCC(/C2=C/C2CC2)[C@@H]1C(=O)Nc1ccc(F)c(C(F)(F)F)c1` (single isomer, unassigned) [compound 443], the EC50 under setting [1] amounted to 5 nM. As for `COc1ccc(C2=NOC3CC(O)(C(F)(F)F)CC23)cc1C(=O)N[C@H]1[C@@H](C(=O)NCC(C)(C)C)[C@H]2CC[C@@H]1/C2=C\C1CC1` (stereo partly drawn) [compound 862], the EC50 under setting [1] was 3.4 nM. As to `COc1ccc(C2=NOC(CCO)C2)cc1C(=O)N[C@@H]1C2CCC(/C2=C/C2CC2)[C@@H]1C(=O)Nc1ccc(F)c(C(F)(F)F)c1` (stereo partly drawn) [compound 399], the EC50 under setting [1] turned out to be 42 nM. In the case of `COc1cc(F)c(F)cc1C(=O)NC1C2CCC(C2=Cc2ncco2)C1C(=O)Nc1ccc(F)c(C(F)(F)F)c1` (stereo not drawn) [Example 145], the EC50 under setting [1] came out at 1300 nM. With `COc1ccc(C2=NOC(CC(=O)O)C2)cc1C(=O)N[C@@H]1C2CCC(/C2=C/C2CCC2)[C@@H]1C(=O)Nc1ccc(F)c(C(F)(F)F)c1` (stereo partly drawn) [compound 394], the EC50 under setting [1] is 49 nM. The molecule `COc1cc(F)c(F)cc1C(=O)N[C@@H]1C2CCC(/C2=C/c2c(Cl)cccc2Cl)[C@@H]1C(=O)Nc1ccc(F)c(C(F)(F)F)c1` (stereo partly drawn) [compound 69] returned an EC50 (cAMP hRXFP1 HEK293 Assay EC50, HEK293 cells stably expressing human RXFP1, 30 min at room temperature) of 3700 nM.

In the case of `COc1ccc(C2=NO[C@H]3COC[C@@H]23)cc1C(=O)N[C@H]1[C@@H](C(=O)Nc2ccc(F)c(C(F)(F)F)c2)[C@H]2CC[C@@H]1/C2=C\C1CCCC1` [compound 819], the EC50 under setting [1] was found to be 2.3 nM. On the same count and under the same terms, the same measure for `COc1ccc(C2=NO[C@H]3C[C@H](CO)C[C@@H]23)cc1C(=O)N[C@H]1[C@@H](C(=O)N[C@H](C)C2(C)CC2)[C@H]2CC[C@@H]1/C2=C\C1CC(F)(F)C1` [compound 823]: 2.6 nM; for `COc1ccc(-c2cc(C(=O)NS(C)(=O)=O)ccc2F)cc1C(=O)N[C@@H]1C2CCC(C2=C(C)C)[C@@H]1C(=O)Nc1ccc(F)c(C(F)(F)F)c1` (stereo partly drawn) [compound 131]: 130 nM; for `COc1ccc(-c2cc(C(CC(=O)O)C(F)(F)F)ccc2F)cc1C(=O)N[C@H]1[C@@H](C(=O)Nc2ccc(F)c(C(F)(F)F)c2)[C@H]2CC[C@@H]1/C2=C\C1CC1` (stereo partly drawn) [compound 873]: 3.3 nM. Turning to `COc1ccc(-c2ccnc(C(F)F)c2)cc1C(=O)N[C@@H]1C2CCC(/C2=C/C2CC2)[C@@H]1C(=O)Nc1ccc(F)c(C(F)(F)F)c1` (stereo partly drawn) [compound 284], the EC50 under setting [1] was 109 nM.
